# Test results reported in patent US20090253634A1, “Methods and Compositions for the Treatment of Gastrointestinal Disorders” (MICROBIA, INC., priority 2005, published 2009).
# Where two headings read alike, the source gives them in different places. Bridge positions count the residues as written; N and C are the ends. Peptide text beside a SMILES is read from it.
# Columns and labels:
# [1] = tested on: visceromotor response to colorectal distension; assay: water avoidance stress-induced hyperalgesia model and basal visceral nociception; type: in vivo, Wistar rats
# Method: The effect of SEQ ID NO:3 on basal visceral nociception in a model of water avoidance stress-induced visceral hyperalgesia in adult male Wistar rats was tested. The stress involved confining rats to a platform surrounded by water for a period of 1 hour and then measuring their visceromotor response to colonic distension using electromyography (EMG).
# Electrode leads were then tunneled subcutaneously and externalized laterally for future access. Following surgery, rats were housed in pairs and allowed to recover for at least 7 days. On the day of the experiment, animals were lightly anesthetized with halothane, and a lubricated latex balloon (6 cm) was inserted intra-anally into the descending colon. Animals were allowed to recover for 30 minutes, and colorectal distension (CRD) was initiated. The CRD procedure consisted of graded intensities of phasic CRD (10, 20, 40, 60 mmHg; 20 s duration; 4 min inter-stimulus interval). Visceromotor response (VMR) to CRD was quantified by measuring EMG activity. […] Animals were allowed 1 hour recovery and then SEQ ID NO:3 or vehicle was orally administered. At 1 hour following administration of SEQ ID NO:3 or vehicle CRD was repeated. […] The mean value (+/−SEM) of in vehicle and SEQ ID NO:3 treated groups (n=7 for each group) is graphically depicted in FIG. 7e.
# To determine the effect of SEQ ID NO:3 in a model of water avoidance stress-induced visceral hyperalgesia, a baseline CRD was recorded and then the animals were subjected to 1 hour of water avoidance stress. For water avoidance stress, the test apparatus consisted of a Plexiglas tank with a block affixed to the center of the floor. The tank was filled with fresh room temperature water (25° C.) to within 1 cm of the top of the block. The animals were placed on the block for a period of 1 h. The sham water avoidance stress consisted in placing the rats on the same platform in a waterless container. A second CRD was performed at 24 hours post water avoidance stress. Following the second CRD, animals were allowed 1 hour recovery and then SEQ ID NO:3 or vehicle was orally administered. […]
# intestinal secretion = assay: suckling mouse model of intestinal secretion (SuMi assay); type: in vivo, suckling mice; details: dose response; wild-type ST purchased from TDT; FIG. 5a, 5b
# Method: In this model a test compound is administered to suckling mice that are between 7 and 9 days old. After the mice are sacrificed, the gastrointestinal tract from the stomach to the cecum is dissected (“guts”). The remains (“carcass”) as well as the guts are weighed and the ratio of guts to carcass weight is calculated. If the ratio is above 0.09, one can conclude that the test compound increases intestinal secretion. […] The effect of Zelnorm® was also studied.
# [2] = oral bioavailability in rats, radioimmunoassay (RIA) detection; details: female, CD, rat, in vivo
# Method: Oral bioavailability was also determined using a radioimmunoassay (RIA) detection method. Female CD-1 mice (Charles River, Wilmington, Mass.) weighing approximately 25g (7-8 weeks old) or female CD rats (Charles River, Wilmington, Mass.) weighing approximately 153 g were included in this study. Monoclonal antibody, 20C1 (Brandwein et al. 1985 Infect Immun. 47:242-246), which recognizes SEQ ID NO:7 and ^125I labeled-SEQ ID NO:7, a labeled tracer, were used in these experiments. The labeled tracer was purified by HPLC using a Waters C-18u Bondapak® column (25 cm) previously equilibrated with 10 mM ammonium acetate pH 5.8. A gradient from 0 to 25% acetonitrile was applied to the column in 60 min, followed by isocratic elution at 25% acetonitrile for another 20 min. This method separated two monoiodinated forms from each other and from unlabeled precursor (Thompson et al. 1985 Anal Biochem. 148:26-36). […] The labeled tracer bad a specific activity of 2200 Ci/mmol. The tracer was stored in aliquots at −20° C. Animals were fasted overnight before administration of compounds. Animals received SEQ ID NO:3 (rats—10 mg/kg; mice 8 mg/kg) or vehicle alone (20 mM Tris-HCl, ph7.5) intravenously or orally. Blood was drawn from all dosed animals by retro-orbital eye bleeding at specific intervals and test compound levels were analyzed by radioimmunoassay (RIA). SEQ ID NO:3 was extracted from the serum or plasma using Amersham Biosciences Amprep C18 columns (100 mg). Samples (80 μL) were first diluted to 0.5 mL with start buffer (8% methanol, 0.095% TFA in water) and applied to C18 columns previously conditioned with 1 mL methanol and equilibrated with 2 mL of start buffer. […] Radioactivity was measured in a LS 6500 scintillation counter (Beckman-Coulter). The binding efficiency is defined as the percent radioactivity in the B0 sample compared to the input counts. The percent bound in each sample was calculated by the equation: […]
# A standard curve was prepared by plotting % B/B0 as a function of the log SEQ ID NO:3 concentration. […] Oral Bioavailabilty (F) is calculated using the equation: […]
# [3] = tested on: ligated loop in the small intestine; assay: ligated intestinal loop model in wild-type and GC-C KO mice; type: in vivo; details: 5 μg injected into loop, 90 minutes
# Method: The length of each loop was also recorded.
smiles,measurement,setting,value
"C[C@@H]1NC(=O)[C@@H]2CCCN2C(=O)[C@H](CC(N)=O)NC(=O)[C@@H]2CSSC[C@H](N)C(=O)N[C@H]3CSSC[C@H](NC1=O)C(=O)N[C@@H]([C@@H](C)O)C(=O)NCC(=O)N[C@H](C(=O)N[C@@H](Cc1ccc(O)cc1)C(=O)O)CSSC[C@H](NC(=O)[C@H](Cc1ccc(O)cc1)NC(=O)[C@H](CCC(=O)O)NC3=O)C(=O)N2 [SEQ ID NO:3] (H-CCEYCCNPACTGCY-OH; disulfide 1-6, 2-10, 5-13; N-terminus and C-terminus assumed)",basal visceral nociception,[1]; oral 3 μg/kg,had no effects
same,visceromotor response to CRD 24 hours after water avoidance stress,[1]; oral 3 μg/kg,exhibited anti-hyperalgesic properties
same,basal visceral nociception versus vehicle,[1]; oral 30 μg/kg,increased basal visceral nociception
same,intestinal secretion (guts to carcass weight ratio),intestinal secretion,increase intestinal secretion
same,AUC,"[2]; 10 mg/kg intravenous, read-out: AUCi.v.,(0-6h) (converted)",23700 ng·h/mL
same,AUC,"[2]; 10 mg/kg oral, read-out: AUCp.o.,(0-6h) (converted)",48.3 ng·h/mL
same,bioavailability,"[2]; oral, 10 mg/kg, over 6 hours",0.2%
same,cGMP activity in ligated loop fluid,[3],no effect
same,secretion in ligated loop (weight to length ratio),[3],no effect
